Assay results published in ChEMBL document CHEMBL1201862, “PubChem BioAssay data set” (2004).
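Step 1: Grow cells in 96-well plates. Step 2: Expose to compound for 48 hours at 5 concentrations. Step 3: Interpolate endpoints linearly; if unreached, use highest concentration. GI50 = concentration required for 50% inhibition of growth.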 Activity calls are given as the source filed them. Rule as the data show it: active = GI50 up to about 1.1 µM and inactive = higher.

Tests used:
Assay in all cases: DTP human tumour cell line panel, 48 h
NCI-H460 = system: NCI-H460
EKVX = system: EKVX
HL-60 = system: HL-60
SF-268 = system: SF-268
CCRF-CEM = system: CCRF-CEM
UACC-257 = system: UACC-257
ACHN = system: ACHN
RXF 393 = system: RXF 393
SR = system: SR
SNB-75 = system: SNB-75
K562 = system: K562
A549 = system: A549
HOP-18 = system: HOP-18
SN12C = system: SN12C
HOP-92 = system: HOP-92
HOP-62 = system: HOP-62
SK-MEL-2 = system: SK-MEL-2
KM-20L2 = system: KM-20L2
NCI-H226 = system: NCI-H226
COLO 205 = system: COLO 205
XF498 = system: XF498
786-0 = system: 786-0
NCI-H522 = system: NCI-H522
SK-MEL-28 = system: SK-MEL-28
UO-31 = system: UO-31
MOLT-4 = system: MOLT-4
DMS-114 = system: DMS-114
HCT-15 = system: HCT-15
UACC-62 = system: UACC-62
CAKI-1 = system: CAKI-1
HT-29 = system: HT-29
SW-620 = system: SW-620
OVCAR-8 = system: OVCAR-8
KM12 = system: KM12
HCC 2998 = system: HCC 2998
DLD-1 = system: DLD-1
OVCAR-4 = system: OVCAR-4
LXFL 529 = system: LXFL 529
TK-10 = system: TK-10
DMS-273 = system: DMS-273
HCT-116 = system: HCT-116
SF-295 = system: SF-295
Malme-3M = system: Malme-3M
OVCAR-3 = system: OVCAR-3
M14 = system: M14
RPMI-8226 = system: RPMI-8226
U-251 = system: U-251
SF-539 = system: SF-539
NCI-H23 = system: NCI-H23
SNB-19 = system: SNB-19

Measured: GI50

O=C1c2ccccc2C(=O)c2[nH]c(Cc3ccccc3F)nc21
45.2 µM: HCT-15
inactive: NCI-H460 33.9 µM | EKVX > 100 µM | HL-60 35.6 µM | SF-268 40.7 µM | CCRF-CEM > 100 µM | UACC-257 44.9 µM | ACHN 53.5 µM | RXF 393 20.2 µM | SR 68.2 µM | SNB-75 50.7 µM | K562 > 100 µM | A549 52.7 µM | HOP-18 93.8 µM | SN12C > 100 µM | HOP-92 68.1 µM | HOP-62 86.7 µM | SK-MEL-2 60.1 µM | KM-20L2 33.9 µM | NCI-H226 48.2 µM | COLO 205 33.7 µM | XF498 53.1 µM | 786-0 38.5 µM | NCI-H522 21.3 µM | SK-MEL-28 > 100 µM | UO-31 52.5 µM | MOLT-4 89.7 µM | DMS-114 33.7 µM | UACC-62 46.1 µM | CAKI-1 86.7 µM | HT-29 32.1 µM | SW-620 37.9 µM | OVCAR-8 48.3 µM | KM12 38.9 µM | HCC 2998 > 100 µM | DLD-1 16.1 µM | OVCAR-4 28.1 µM | LXFL 529 31.9 µM | TK-10 29.3 µM | DMS-273 34.6 µM | HCT-116 41.4 µM | SF-295 59.2 µM | Malme-3M 40.7 µM | OVCAR-3 14.5 µM | M14 84.1 µM | RPMI-8226 57.4 µM | U-251 7.96 µM | SF-539 31.2 µM | NCI-H23 27.7 µM | SNB-19 38.5 µM
